According to publication PMC8119466, “A screen of FDA-approved drugs identifies inhibitors of protein tyrosine phosphatase 4A3 (PTP4A3 or PRL-3)” (Scientific Reports, 2021):
Where a name gives a salt, the structure may show the parent alone. Read-outs that look alike come from different tables or passages of the source.

Key:
Format in all cases: biochemical
[1] = molecular target: T1, recombinant PRL-1 (Homo sapiens, UniProt Q93096); test: In vitro phosphatase assay (DiFMUP hydrolysis), PRL-1; note: test concentration or dose not given here
T1 construct: 6xHis (N, cleaved yes); made in house; host or cells: E. coli One Shot BL21 Star
T1 sequence (Q93096 1-173): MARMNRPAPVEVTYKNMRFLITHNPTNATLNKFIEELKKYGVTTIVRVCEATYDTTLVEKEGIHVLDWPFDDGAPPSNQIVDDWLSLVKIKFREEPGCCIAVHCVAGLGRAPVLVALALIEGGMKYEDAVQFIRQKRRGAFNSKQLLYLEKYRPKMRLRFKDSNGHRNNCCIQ

[2] = molecular target: T2, recombinant PRL-2 (Homo sapiens, UniProt Q12974); test: In vitro phosphatase assay (DiFMUP hydrolysis), PRL-2;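 note: PRL-2 activity read as DiFMUP hydrolysis after 20 min at room temperature with drug, enzyme first pre-reduced at 4 °C for 20 min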
T2 construct: 6xHis (N, cleaved yes); made in house; host or cells: E. coli One Shot BL21 Star
T2 sequence (Q12974 1-167): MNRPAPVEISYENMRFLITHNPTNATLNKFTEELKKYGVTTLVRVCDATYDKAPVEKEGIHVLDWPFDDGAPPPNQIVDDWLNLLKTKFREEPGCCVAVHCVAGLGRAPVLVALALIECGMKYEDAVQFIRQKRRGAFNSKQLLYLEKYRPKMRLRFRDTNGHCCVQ

[3] = molecular target: T3, recombinant PRL-3 (Homo sapiens, UniProt O75365); test: In vitro phosphatase assay (DiFMUP hydrolysis), PRL-3; note: test concentration or dose not given here
T3 construct: 6xHis (N, cleaved yes); made in house; host or cells: E. coli One Shot BL21 Star

[4] = FDA-approved drug screen, compared to DMSO

T3 sequence (O75365 whole entry): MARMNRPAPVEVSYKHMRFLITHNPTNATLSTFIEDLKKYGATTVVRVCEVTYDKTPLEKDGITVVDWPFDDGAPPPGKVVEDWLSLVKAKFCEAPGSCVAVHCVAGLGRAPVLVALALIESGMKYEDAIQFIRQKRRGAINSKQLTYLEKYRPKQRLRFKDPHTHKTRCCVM

Row | SMILES | % Phosphatase Activity (compared to DMSO) PRL-1 [1, 4] [%] | % Phosphatase Activity (compared to DMSO) PRL-2 [2, 4] [%] | % Phosphatase Activity (compared to DMSO) PRL-3 [3, 4] [%] | % Phosphatase Activity (compared to DMSO) PRL-1 [1] [%] | % Phosphatase Activity (compared to DMSO) PRL-2 [2] [%] | % Phosphatase Activity (compared to DMSO) PRL-3 [3] [%]
1 | OC[C@@H](O)[C@@H](O)[C@H](O)[C@H](O)CO [D-Mannitol] | 93 | 101 | 104 |  |  | 
2 | CCN(CC)C(=O)c1cccc(C)c1 [DEET] | 95 | 77 | 85 |  |  | 
3 | CCCCCCOC(=O)N=C(N)c1ccc(NCc2nc3cc(C(=O)N(CCC(=O)OCC)c4ccccn4)ccc3n2C)cc1 [Dabigatran Etexilate] | 121 | 112 | 106 |  |  | 
4 | CC(C)(C)c1nc(-c2cccc(NS(=O)(=O)c3c(F)cccc3F)c2F)c(-c2ccnc(N)n2)s1 [Dabrafenib (GSK2118436)] | 81 | 82 | 86 |  |  | 
5 | CN(C)/N=N/c1[nH]cnc1C(N)=O [Dacarbazine] | 92 | 98 | 76 |  |  | 
6 | COC(=O)N[C@H](C(=O)N1CCC[C@H]1c1ncc(-c2ccc(-c3ccc(-c4cnc([C@@H]5CCCN5C(=O)[C@@H](NC(=O)OC)C(C)C)[nH]4)cc3)cc2)[nH]1)C(C)C [Daclatasvir (BMS-790052)] | 320 | 324 | 236 |  |  | 
7 | COc1cc2ncnc(Nc3ccc(F)c(Cl)c3)c2cc1NC(=O)/C=C/CN1CCCCC1 [Dacomitinib (PF299804, PF299)] | 145 | 147 | 120 |  |  | 
8 | CN1C[C@@H]2C[C@H]1CN2c1cc2c(cc1F)c(=O)c(C(=O)O)cn2C1CC1.CS(=O)(=O)O [Danofloxacin Mesylate] | 998 | 757 | 146 |  |  | 
9 | O=C1c2cccc(O)c2C(=O)c2c(O)cccc21 [Danthron] | 96 | 96 | 78 |  |  | 
10 | O=C1CN(/N=C/c2ccc(-c3ccc([N+](=O)[O-])cc3)o2)C(O)=N1 [Dantrolene sodium] | 76 | 75 | 60 |  |  | 
11 | CCOc1ccc(Cc2cc([C@@H]3O[C@H](CO)[C@@H](O)[C@H](O)[C@H]3O)ccc2Cl)cc1 [Dapagliflozin] |  |  |  | 98 | 91 | 89
12 | CN(C)[C@@H](CCOc1cccc2ccccc12)c1ccccc1 [Dapoxetine HCl] | 99 | 109 | 111 |  |  | 
13 | Nc1ccc(S(=O)(=O)c2ccc(N)cc2)cc1 [Dapson] | 89 | 100 | 75 |  |  | 
14 | CCCCCCCCCC(=O)N[C@@H](Cc1c[nH]c2ccccc12)C(=O)N[C@H](CC(N)=O)C(=O)N[C@@H](CC(=O)O)C(=O)N[C@@H]1C(=O)NCC(=O)N[C@@H](CCCN)C(=O)N[C@@H](CC(=O)O)C(=O)N[C@H](C)C(=O)N[C@@H](CC(=O)O)C(=O)NCC(=O)N[C@H](CO)C(=O)N[C@@H]([C@H](C)CC(=O)O)C(=O)N[C@@H](CC(=O)c2ccccc2N)C(=O)O[C@@H]1C [Daptomycin] | 90 | 75 | 95 |  |  | 
15 | NC(=O)C(c1ccccc1)(c1ccccc1)[C@@H]1CCN(CCc2ccc3c(c2)CCO3)C1 [Darifenacin HBr] |  |  |  | 100 | 102 | 87
